{"source": "patent US20260337190A1", "about": "“CRYSTAL FORM OF PYRIDINOPYRIMIDINONE COMPOUND, ACID SALT THEREOF, CRYSTAL FORM OF ACID SALT THEREOF, AND USE” (Wuhan Humanwell Innovative Drug Research and Development …, priority 2022, published 2026)", "origin": "cited, not measured here", "test_system": "mutated KRAS and wild-type KRAS in tumor cells", "settings": "cited from earlier work"}
{"molecule": "CNCc1ccccc1-c1csc([C@@H](C)Nc2nc(C)nc3cc(OC)c(OC)cc23)c1", "note": "[BAY-293]", "values": [{"measurement": "reduction of activity of mutated and wild-type KRAS in tumor cells", "value": "can effectively reduce the activity of mutated KRAS and wild-type KRAS in tumor cells"}]}
